Data from patent publication US20070128217A1 (priority 2003, published 2007).

Columns and labels:
[1] = system: recombinant human anti-SARS-CoV antibody 03-018; type: binding; parameters: Binding of antibody 03-018 to linear peptides of the N protein of SARS-CoV Urbani / Binding of antibody 03-018 to looped/cyclic peptides of the N protein of SARS-CoV Urbani: unit not given here
[2] = system: control sera (pooled serum of ten healthy LUMC hospital workers; commercial negative donor pooled serum from the Dutch bloodbank); type: binding, human; parameters: Binding of Control serum LUMC to linear peptides / Binding of Control serum Blood-bank to linear peptides / Binding of Control serum LUMC to looped peptides / Binding of Control Serum Blood-Bank to Looped peptides / Binding of Control serum LUMC to linear peptides of the protein M of SARS-CoV Urbani / Binding of Control serum Blood-bank to linear peptides of the protein M of SARS-CoV Urbani / Binding of Control serum LUMC to looped peptides of the protein M of SARS-CoV Urbani / Binding of Control Serum Blood-Bank to Looped peptides of the protein M of SARS-CoV Urbani: unit not given here
[3] = system: antibodies in sera from SARS patients (sera 1a, 1b, 2, 6, 37, 62, London, SARS-yellow, SARS-green); type: binding, human; parameters: Binding of serum 6 to linear peptides of protein X1 of SARS-CoV Urbani / Binding of serum 37 to linear peptides of protein X1 of SARS-CoV Urbani / Binding of serum 6 to looped/cyclic peptide (PEPSCAN-ELISA) / Binding of serum 37 to looped/cyclic peptide (PEPSCAN-ELISA) / Binding of serum 37 to looped/cyclic peptides of protein X1 of SARS-CoV Urbani / Binding of serum 6 to linear peptides of protein X2 / Binding of serum 37 to linear peptides of protein X2 / Binding of serum 37 to looped/cyclic peptides of protein X2 of SARS-CoV Urbani / Binding of serum 6 to linear peptides of protein M of SARS-CoV Urbani / Binding of serum 37 to linear peptides of protein M of SARS-CoV Urbani / Binding of serum 6 to looped/cyclic peptides of protein M of SARS-CoV Urbani / Binding of serum 37 to looped/cyclic peptides of protein M of SARS-CoV Urbani / Binding of serum 6 to linear peptides of protein X3 of SARS-CoV Urbani / Binding of serum 37 to linear peptides of protein X3 of SARS-CoV Urbani / Binding of serum 37 to looped/cyclic peptides of protein X3 of SARS-CoV Urbani / Binding of serum 6 to linear peptides of protein X4 of SARS-CoV Urbani / Binding of serum 37 to linear peptides of protein X4 of SARS-CoV Urbani / Binding of serum 37 to looped/cyclic peptides of protein X4 of SARS-CoV Urbani / Binding of serum 6 to linear peptides of protein X5 of SARS-CoV Urbani / Binding of serum 37 to linear peptides of protein X5 of SARS-CoV Urbani / Binding of serum 37 to looped/cyclic peptides of protein X5 of SARS-CoV Urbani / Binding of serum 6 to linear peptides of protein N of SARS-CoV Urbani / Binding of serum 37 to linear peptides of protein N of SARS-CoV Urbani / Binding of serum 6 to linear peptide (PEPSCAN-ELISA) / Binding of serum 1a to looped/cyclic peptides of protein N of SARS-CoV Urbani / Binding of serum 1b to looped/cyclic peptides of protein N of SARS-CoV Urbani / Binding of serum 2 to looped/cyclic peptides of protein N of SARS-CoV Urbani / Binding of serum 6 to looped/cyclic peptides of protein N of SARS-CoV Urbani / Binding of serum 37 to looped/cyclic peptides of protein N of SARS-CoV Urbani / Binding of serum 62 to looped/cyclic peptides of protein N of SARS-CoV Urbani / Binding of serum London to looped/cyclic peptides of protein N of SARS-CoV Urbani / Binding of serum SARS-green to looped/cyclic peptides of protein N of SARS-CoV Urbani: unit not given here
[4] = system: rabbit serum obtained by immunizing a rabbit with the SARS-CoV strain Frankfurt 1; type: binding; parameters: Binding of a rabbit serum to linear peptides / Binding of a rabbit serum to looped peptides / Rabbit serum linear peptides / Rabbit serum looped peptides / Binding of a rabbit serum to linear peptides of protein N of SARS-CoV Urbani (Rabbit serum linear peptides) / Binding of a rabbit serum to looped/cyclic peptides of protein N of SARS-CoV Urbani (Rabbit serum looped peptides): unit not given here

Sequence	Binding of antibody 03-018 to linear peptides of the N protein of SARS-CoV Urbani [1]	Binding of antibody 03-018 to looped/cyclic peptides of the N protein of SARS-CoV Urbani [1]	Binding of Control Serum Blood-Bank to Looped peptides [2]	Binding of Control serum Blood-bank to linear peptides [2]	Binding of Control serum LUMC to linear peptides [2]	Binding of Control serum LUMC to looped peptides [2]	Binding of serum 1a to looped/cyclic peptides of protein N of SARS-CoV Urbani [3]	Binding of serum 1b to looped/cyclic peptides of protein N of SARS-CoV Urbani [3]	Binding of serum 2 to looped/cyclic peptides of protein N of SARS-CoV Urbani [3]	Binding of serum 6 to looped/cyclic peptides of protein N of SARS-CoV Urbani [3]	Binding of serum 37 to looped/cyclic peptides of protein N of SARS-CoV Urbani [3]	Binding of serum 62 to looped/cyclic peptides of protein N of SARS-CoV Urbani [3]	Binding of serum London to looped/cyclic peptides of protein N of SARS-CoV Urbani [3]	Binding of serum SARS-green to looped/cyclic peptides of protein N of SARS-CoV Urbani [3]	Binding of serum SARS-yellow to looped/cyclic peptides of protein N of SARS-CoV Urbani [3]	Binding of serum 1a to linear peptides of protein N of SARS-CoV Urbani [3]	Binding of serum 1b to linear peptides of protein N of SARS-CoV Urbani [3]	Binding of serum 2 to linear peptides of protein N of SARS-CoV Urbani [3]	Binding of serum 6 to linear peptides of protein N of SARS-CoV Urbani [3]	Binding of serum 37 to linear peptides of protein N of SARS-CoV Urbani [3]	also measured
VTQAFGRRGPEQTQG	0.1	0.2	0.6	0.8	0.7	0.5	0.3	0.2	0.2	0.1	0.4	0.3	0.3	0.2	0.3						Binding of serum 1a to linear peptide (PEPSCAN-ELISA) [3]: 0.3; Binding of serum 1b to linear peptide (PEPSCAN-ELISA) [3]: 0.1; Binding of serum 2 to linear peptide (PEPSCAN-ELISA) [3]: 0.1; Binding of serum 6 to linear peptide (PEPSCAN-ELISA) [3]: 0.2; Binding of serum 37 to linear peptide (PEPSCAN-ELISA) [3]: 0.6; Binding of serum 62 to linear peptide (PEPSCAN-ELISA) [3]: 0.5; Binding of serum London to linear peptide (PEPSCAN-ELISA) [3]: 0.5; Binding of serum SARS-green to linear peptide (PEPSCAN-ELISA) [3]: 0.5; Binding of serum SARS-yellow to linear peptide (PEPSCAN-ELISA) [3]: 0.7; Recognition of the peptide by the rabbit serum [4]: recognized
TFGGPTDSTDNNQNG	0.1	0.2	0.5	0.8	0.7	0.5	0.3	0.2	0.3	0.2	0.4	0.3	0.3	0.5	0.1	0.3	0.1	0.2	0.2	0.8	Binding of serum 62 to linear peptides of protein N of SARS-CoV Urbani [3]: 0.6; Binding of serum London to linear peptides of protein N of SARS-CoV Urbani [3]: 0.6; Binding of serum SARS-green to linear peptides of protein N of SARS-CoV Urbani [3]: 0.5; Binding of serum SARS-yellow to linear peptides of protein N of SARS-CoV Urbani [3]: 0.5; Binding of a rabbit serum to linear peptides of protein N of SARS-CoV Urbani (Rabbit serum linear peptides) [4]: 0.1; Binding of a rabbit serum to looped/cyclic peptides of protein N of SARS-CoV Urbani (Rabbit serum looped peptides) [4]: 0.1
FGMSRIGMEVTPSGT	0.1	0.2					0.3	0.2	0.4	0.2	0.4	0.3	0.3	0.2	0.3	0.3	0.1	0.2	0.2	0.8	Control Serum Blood-Bank Looped peptides [2]: 0.5; Control serum Blood-bank linear peptides [2]: 0.8; Control serum LUMC linear peptides [2]: 0.7; Control serum LUMC looped peptides [2]: 0.5; Binding of serum 62 to linear peptides of protein N of SARS-CoV Urbani [3]: 0.7; Binding of serum London to linear peptides of protein N of SARS-CoV Urbani [3]: 0.6; Binding of serum SARS-green to linear peptides of protein N of SARS-CoV Urbani [3]: 0.3; Binding of serum SARS-yellow to linear peptides of protein N of SARS-CoV Urbani [3]: 0.7; Binding of a rabbit serum to linear peptides of protein N of SARS-CoV Urbani (Rabbit serum linear peptides) [4]: 0.2; Binding of a rabbit serum to looped/cyclic peptides of protein N of SARS-CoV Urbani (Rabbit serum looped peptides) [4]: 0.3
LTQHGKEELRFPRGQ	0.1	0.2	0.6	0.8	0.6	0.6	0.4	0.2	0.4	0.3	0.6	0.4	0.4	0.3	0.4	0.2	0.1	0.3	0.2	0.6	Binding of serum 62 to linear peptides of protein N of SARS-CoV Urbani [3]: 0.7; Binding of serum London to linear peptides of protein N of SARS-CoV Urbani [3]: 0.4; Binding of serum SARS-green to linear peptides of protein N of SARS-CoV Urbani [3]: 0.3; Binding of serum SARS-yellow to linear peptides of protein N of SARS-CoV Urbani [3]: 0.6; Binding of a rabbit serum to linear peptides of protein N of SARS-CoV Urbani (Rabbit serum linear peptides) [4]: 0.1; Binding of a rabbit serum to looped/cyclic peptides of protein N of SARS-CoV Urbani (Rabbit serum looped peptides) [4]: 0.4
